`Brc1ccc2c(c1)N=C(N1CCOCC1)c1cccc3c1N2CC3` showed a melting point of 216 to 218 °C.
With `CCCCCCCCCCCCCCCCC#CCC(CO)COCCCCCCCCCCCCCCCC` (stereo not given) the melting point was 46 to 47 °C.
`CC(C)(C)OC(=O)N1CCC(c2cc(F)ccc2F)(S(=O)(=O)c2ccc(Cl)cc2)CC1` showed a melting point of 101 to 106 °C.
In the case of `CN1C(=O)[C@H](NC(=O)CCc2ccc(F)cc2F)N=C(c2ccccc2)c2ccccc21`, the melting point is reported as 79 to 81 °C.
`BrCc1c(Br)cccc1Br` gave a melting point of 77 to 78 °C.
With `CCOC(=O)CC(c1ccc(OC)cc1)N1C(=O)c2ccccc2C1=O` (stereo not given) the melting point was 32 °C.
`O=C1N(Cc2ccc(-c3cccc(Cl)c3)o2)c2ccccc2C12COc1cc3c(cc12)OCO3` (stereo not given) showed a melting point of 205 to 207 °C.
`CN(CCOC[C@@H]1CC(c2ccc(-c3ccc(N4C[C@H](Cn5ccnn5)OC4=O)cc3F)cn2)=NO1)CC(=O)O` gave a melting point of 135 to 140 °C.
In the case of `CCS(=O)(=O)Cc1ccc(Cl)c2nc3n(c12)CCCN3c1ccc(Cl)cc1Cl`, the melting point is reported as 278 to 280 °C.
Work on `NC(=O)c1cnn2c(=O)n(CCCl)nnc12` yielded a melting point of 193 to 194 °C.
`CCOCc1cc(OC)c(-c2ccc(C[C@H](NC(=O)c3c(F)cccc3F)C(=O)O)cc2)c(OC)c1` gave a melting point of 154 to 155 °C.
With `O=C(O)c1nc(-c2ccccc2Oc2ccc(F)cc2O)no1` the melting point was 127 to 128 °C.
Work on `CCCOc1ccccc1-c1nc2nnc(SC)nc2c(=O)[nH]1` yielded a melting point of 195 to 197 °C.
For `COc1ccc(Cn2c(=O)c3cnc(Nc4ccc(N5CCN(C)CC5)cc4)nc3n(C(C)C)c2=O)cc1`, the melting point was 215 to 216 °C.
In the case of `CCCCc1nnc(S(=O)Cc2ccc([N+](=O)[O-])cc2)n1Cc1ccc(-c2ccccc2-c2nnn[nH]2)cc1` (stereo not given), the melting point is reported as 222 to 223 °C.
In the case of `CN(C)C(=O)c1cncn1C`, the melting point is reported as 46 to 47 °C.
With `O=c1cc(CNCc2ccccc2)c2ccc(OCc3cccc(Cl)c3)cc2o1` the melting point was 133 to 135 °C.
In the case of `N=C(NO)c1cccc(COC(=O)c2cc3ccccc3n2Cc2cccc(C(=N)NO)c2)c1`, the melting point is reported as 114 to 116 °C.
In the case of `CC(C)(C)[Si](C)(C)O[C@H]1CC(=O)O[C@H](CO)C1`, the melting point is reported as 102 °C.
Compound `CCN1C(=O)C(C)(C)C(=O)N(C)c2cc(CN(CCn3ccc4oc(C)cc4c3=O)Cc3cnccc3Cl)ccc21` has a melting point of 114 to 118 °C.
`Cc1cnc(CCCCCNc2ncc(Cc3ccc(C)nc3)c(=O)[nH]2)c(N)c1` showed a melting point of 161 to 163 °C.
`COc1cc2c(cc1O)CCCC2=O` showed a melting point of 117 to 119 °C.
In the case of `COc1ccc2cc([C@H](C)C(=O)OCCN(CCO[N+](=O)[O-])S(=O)(=O)c3ccc(C)cc3)ccc2c1`, the melting point is reported as 92 to 95 °C.
In the case of `CCCCOc1cccc(C(=O)C=Cc2ccc(OC)cc2OC)c1`, the melting point is reported as 80.4 to 81.3 °C.
For `CSC1=CC2=CN(SC)NN2C(SC)=N1`, the melting point was 165 to 167 °C.
Compound `O=C1CCN(Cc2ccc([N+](=O)[O-])cc2)CC1C(c1ccc(F)cc1)c1ccc(F)cc1` (stereo not given) has a melting point of 118 to 119 °C.
`CC1=C(OC(=O)C(C)(C)C)C2=C(O)N(I)CN(OC(=O)C(C)(C)C)C2=N1` showed a melting point of 155 °C.
Work on `COc1ccc(C2=NN(c3ccccc3)C(c3ccc(NC(=S)Nc4ccccc4)cc3)C2)cc1` (stereo not given) yielded a melting point of 153 to 156 °C.
In the case of `CC1CCN2C(=N1)C(=O)c1cc(S(=O)(=O)N3CCCC3)ccc12` (stereo not given), the melting point is reported as 152 to 153 °C.
`CCC(=O)OCc1cc2c3ccccc3[nH]c(=O)n2n1` gave a melting point of 184 to 186 °C.
`CCCN(c1ccncc1)n1ccc2cc(OC(=O)NCc3ccccc3)ccc21` showed a melting point of 156 to 158 °C.
Compound `C=CCOc1ccc(-c2nc3ccccc3o2)cc1` has a melting point of 95 to 96 °C.
Compound `Cc1cc(CNC(=O)c2nc3scc(COCc4ccc(C(=O)O)cc4)c3c(=O)[nH]2)ccc1F` has a melting point of 246 to 248 °C.
In the case of `CCOC(=O)CCC(C)c1ccc(O)cc1` (stereo not given), the melting point is reported as 32 to 34 °C.
Compound `COC(=O)C1(n2c(=O)[nH]c3ccccc3c2=O)CCCC1` has a melting point of 164 to 165 °C.
Work on `N#CCS(=O)(=O)CC(=O)O` yielded a melting point of 104 to 105 °C.
Compound `Cc1cccc(C)c1NC(C)C(=O)O` (stereo not given) has a melting point of 178 to 180 °C.
For `COCOc1c(-c2cncc3cccc([N+](=O)[O-])c23)ccc(OC)c1OC`, the melting point was 138 to 140 °C.
Work on `CCCCC(CC)COC(=O)CSc1cc2c(cc1SCC(=O)OCC(CC)CCCC)C(=O)c1cc3ccccc3cc1C2=O` (stereo not given) yielded a melting point of 75 to 80 °C.
`CCOC(=O)c1sc(N2CCNC2=O)nc1C(F)(F)F` showed a melting point of 185 to 187 °C.
`C#CCN1C(=O)C(C)Oc2cc(Cl)c(-c3ccc(C(F)(F)F)n(C)c3=O)cc21` (stereo not given) gave a melting point of 203 to 204 °C.
In the case of `COc1cnc(CSc2nc3cc(OC(F)(F)F)ccc3[nH]2)cc1OC`, the melting point is reported as 92 to 93 °C.
For `O=C(CC1CCC(CC(=O)Oc2cc(O)cc(O)c2)CC1)Oc1cc(O)cc(O)c1` (stereo not given), the melting point was 215 to 220 °C.
`c1ccc2c(c1)CCc1c(CN3CCN(c4cc5ccccc5cn4)CC3)n[nH]c1-2` showed a melting point of 228 to 230 °C.
Work on `COCCOc1cc2c(Nc3cc(OC)c(Cl)cc3Cl)c(C#N)cnc2cc1F` yielded a melting point of 170 to 172 °C.
For `O=C(COc1ccc([N+](=O)[O-])c(F)c1)NCc1ccccc1`, the melting point was 128 to 130 °C.
`CCOC(=O)c1ccc2nc(C)n(Cc3ccccc3Cl)c2c1` gave a melting point of 126 to 127 °C.
In the case of `CN(c1cccc2cc(-c3nccs3)[nH]c12)S(=O)(=O)N1CCCC1`, the melting point is reported as 108 °C.
`O=CN(Cc1cccc2ccccc12)c1cccc(NC(=O)c2cc(Cl)cc(Cl)c2)c1` gave a melting point of 205 to 208 °C.
In the case of `O=C(CSc1ccc(C2=NCC(c3cc(Cl)cc(Cl)c3)(C(F)(F)F)C2)cc1Cl)NCC(F)(F)F` (stereo not given), the melting point is reported as 189 °C.
